Reference: patent US20190192524A1, “Modulators of Caspase-6” (The University of British Columbia, priority 2014, published 2019)

Legend:
recombinant caspase-6 = biological target: T1, recombinant caspase-6 (Homo sapiens, UniProt P55212); assay: Simultaneous caspase-6 cleavage and 586 fragment detection by FRET; assay type: biochemical; conditions: cell-free; Htt substrate from COS-7 cell lysates
T1 construct: purchased BioMol
T1 sequence (P55212 24-293): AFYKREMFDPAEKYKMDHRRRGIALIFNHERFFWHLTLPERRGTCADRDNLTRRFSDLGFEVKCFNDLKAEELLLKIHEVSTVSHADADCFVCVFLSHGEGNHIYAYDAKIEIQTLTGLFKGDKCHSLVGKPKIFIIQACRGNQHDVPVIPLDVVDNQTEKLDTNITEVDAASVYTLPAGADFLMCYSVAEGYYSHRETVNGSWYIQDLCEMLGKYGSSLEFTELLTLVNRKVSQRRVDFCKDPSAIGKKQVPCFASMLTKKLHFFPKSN
Procedure: Different concentrations of the PG3 compounds were incubated with the Htt protein and the caspase-6 enzyme. The Htt substrate from COS-7 cell lysates is cleaved by caspase 6 and fragments are detected by FRET between the N-terminal BKP1 antibody and the neo-epitope antibody against amino acid 586.
COS-7 cells were grown in DMEM supplemented with 10% fetal bovine serum, 1%/penicillin/streptomycin and 0.5% glutamine. Transfections were performed using the Fugene reagent (Roche) according to manufacturer's instructions. The transfected DNA encodes amino acids 1-1212 of the human Htt protein with 15 glutamines and a C-terminal HA-tag, under control of a CMV promoter (Warby, 2008, supra; Wellington et al., 2000. J Biol Chem 275:19831-19838). The construct that was transfected is 4c Htt, which contains D→A mutations at amino acids 513, 530, 552 and […] (SEQ ID NO: 1). 24 h after transfection, cells were harvested by trypsinization, pellets washed in PBS and lysed by suspension in lysis buffer (50 mM Tris pH 8, 150 mM NaCl, 1% Igepal, supplemented with 1× complete protease inhibitor (Roche) and 4 mM Pefabloc). Lysates were incubated on ice for 10 min, vortexed and sonicated for 4 sec before centrifugation at 21,000×g for 10 min at 4° C. Supernatants were saved, protein concentration determined with the Biorad DC assay and stored at −80° C. until use.
Dilution series of cell lysates and caspase-6 (2.2× final concentration) were prepared in FRET cleavage buffer (10 mM HEPES pH 7.4, 100 mM NaCl, 0.05% gelatin, 0.1% CHAPS, 2 mM DTT) since this buffer was previously found to best stabilize caspase-6 in dilute form at room temperature. For negative controls, 22 μM zVAD-fmk was added to the caspase-6 dilutions.
Tb-labelled BKP1 antibody and D2-labelled 586 antibody (Cisbio) were diluted to 1 ng/μl (Tb) and 10 ng/μl (D2) in FRET cleavage buffer and pre-mixed at a 1:1 ratio.
In each well of a white 384 well plate (Nunc), 10 μl cell lysate were mixed with 10 μl caspase and 2 μl antibody mix, the plate was centrifuged briefly and incubated in the Victor 3 multilabel plate reader (Perkin Elmer) at 37° C. FRET was measured every 30 min for up to 2 h with the following settings: Excitation: 340 nm, Emission 1: 615 nm, Emission 2: 665 nm, 50 μs delay, 200 μs window time, 2000 μs cycle time. To obtain the final FRET signal, the ratio between Emission 2/Emission 1 (D2/Tb signal) was calculated. After 2 h at 37° C., the assay plate was sealed and after further incubation at 4° C. for 20 h, the FRET signal was read again.

[1] = biological target: T2, human caspase 6 lacking the pro-domain (Homo sapiens, UniProt P55212); assay: Lamin A cleavage in HEK 293 cells overexpressing caspase-6 (Mesoscale ELISA); assay type: cell-based; set-up: The transfected DNA encodes amino acids 24-293 of the human caspase 6 enzyme with a C-terminal DDK tag; DDK-tag (C); expressed in transfected cells; host or cells: HEK 293; conditions: 24 hr incubation; cleaved lamin A quantified; read-out: HEK intracellular IC50
T2 sequence (P55212 with tags, fused parts or gaps): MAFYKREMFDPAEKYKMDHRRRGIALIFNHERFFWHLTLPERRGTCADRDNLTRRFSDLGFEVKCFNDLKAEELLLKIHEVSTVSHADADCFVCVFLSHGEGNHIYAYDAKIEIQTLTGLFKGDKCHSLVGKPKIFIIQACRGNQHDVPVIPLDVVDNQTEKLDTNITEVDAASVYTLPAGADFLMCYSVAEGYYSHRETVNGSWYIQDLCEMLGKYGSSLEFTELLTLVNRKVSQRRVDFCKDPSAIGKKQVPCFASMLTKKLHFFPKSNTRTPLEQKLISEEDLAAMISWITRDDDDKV
Procedure: HEK 293 cells were grown in DMEM supplemented with 10% fetal bovine serum, 1%/penicillin/streptomycin and 0.5% glutamine. Transfections were performed using the Fugene reagent (Roche) according to manufacturer's instructions. The transfected DNA encodes amino acids 24-293 of the human caspase 6 enzyme with a C-terminal DDK tag under the control of a CMV promoter (vector pCMVSport6) (SEQ ID NO: 2). The transfected HEK 293 were used to measure the intracellular activity of caspase-6 as evidenced by cleavage of the lamin substrate (described below).
The quantitative assessment of intracellular lamin cleavage in caspase-6 transfected HEK 293 cells was done as described previously (Ehrnhoefer et al. PLoS One, 2011. 6(11):e27680) Briefly, HEK 293 cell lysates were adjusted to 1 μg protein/μl in lysis buffer, diluted to 0.2 μg/μl in PBS and 5 μl were added to a Multi-Array high-bind 96 well plate (Mesoscale discovery). After incubation at room temperature for 1 h, the wells were blocked by adding 150 μl 5% BSA in PBS, followed by further incubation at room temperature for 1 h. Wells were then washed 3× with 150 μl PBS+0.05% Tween, and 25 μl antibody mix was added (Cell signaling #2036 at 1:100 dilution, Mesoscale discovery goat-anti-rabbit sulfo-tag at 1:500 dilution in PBS with 1% BSA). After lh incubation at room temperature, the wells were washed 3× with 150 μl PBS+0.05% Tween, and 150 μl/well 2× reading reagent (Mesoscale discovery) was added. The plate was read on a Sector imager 6000 (Mesoscale discovery).
The PG3 analog compounds were also tested for their ability to inhibit caspase-6 within cultured cells. HEK 293 cells were transfected with human caspase 6 lacking the pro-domain and were incubated with increasing concentrations of the PG3 analogs. After a 24 hr incubation, the excess compound was washed away, the cells were lysed and the amount of cleaved lamin A protein was quantified by the Mesoscale ELISA method.

[2] = biological target: T3, interaction between 1212AA Htt and caspase-6 (Homo sapiens, UniProt P55212); assay: Co-immunoprecipitation of Htt with caspase-6 antibody from COS-7 lysates; assay type: cell-based; conditions: 3 uM inhibitor, vs DMSO
T3 construct: DDK-tag (C); expressed in transfected cells; host or cells: COS-7
T3 sequence (P55212 with tags, fused parts or gaps): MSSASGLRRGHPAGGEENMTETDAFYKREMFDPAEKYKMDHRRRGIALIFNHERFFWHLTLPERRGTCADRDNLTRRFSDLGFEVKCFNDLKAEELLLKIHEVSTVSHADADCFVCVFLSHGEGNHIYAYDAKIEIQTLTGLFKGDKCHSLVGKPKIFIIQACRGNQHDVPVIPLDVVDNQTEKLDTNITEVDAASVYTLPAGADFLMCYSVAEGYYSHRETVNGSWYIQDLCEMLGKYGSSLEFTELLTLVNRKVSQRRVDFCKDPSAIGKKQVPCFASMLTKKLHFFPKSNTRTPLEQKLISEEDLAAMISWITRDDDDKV
Procedure: (§1) COS-7 cells were co-transfected with the 1212 amino acid HTT fragment (SEQ ID NO: 3) and the full length human caspase-6 enzyme (SEQ ID NO:4). The co-transfected cells were exposed to either 10 uM of the PG3d compound, 3 uM of the Q-VD-Oph pan-caspase inhibitor or were treated with DMSO as a control. An aliquot of the cell lysates were subjected to Western blotting to detect HTT fragments with the Htt antibody 2166 (Millipore) and the presence of caspase-6 was detected using the HD91 antibody (Ehrnhoefer et al, HMG, 2014. 23(3):717-29). The remaining cell lysates (500 ug protein) were immunoprecipitated with 5 ug of Caspase-6 antibody for 16 hrs at 4 C. The immunoprecipitated proteins were then applied to acrylamide gels and immunoblotted to detect either the HTT fragments or the presence of the active caspase 6 enzyme using the antibodies described above.
As expected, the DMSO control lysates reveal a variety of Htt fragments within the immunocomplexes, including 513AA fragment generated by caspase-3 cleavage, the full-length 1212AA Htt and the 586AA fragment generated by caspase-6 cleavage. When the cells are treated with the pan-caspase inhibitor Q-VD-OPh, the amount of Htt cleavage fragments interacting with caspase-6 is reduced and it is evident that caspase-6 is primarily interacting with the 1212 AA Htt.

[3] = biological target: T2, human caspase 6 lacking the pro-domain; assay: Intracellular Htt cleavage by Western blot in co-transfected COS-7 cells; assay type: cell-based; set-up: DDK-tag (C); expressed in transfected cells; host or cells: COS-7; conditions: 3 uM inhibitor
Procedure: COS-7 cells were co-transfected with the 4c htt fragment and the human caspase-6 lacking the pro-domain which leads to fast autoactivation of the caspase-6 enzyme and the generation of the 586 aa Htt cleavage fragment. The co-transfected cells were exposed to either 10 uM of the PG3d compound, 3 uM of the Q-VD-Oph pan-caspase inhibitor or were left untreated. Non-transfected cells were included as a negative control and the purified 586 aa Htt fragment was included as a positive control. Cell lysates were subjected to Western blotting and the 586AA fragment generated intracellularly was detected with Htt antibody 2166 (Millipore). Caspase-6 expression and activation was assessed by Western blotting using antibody HD91 (Ehrnhoefer et al, HMG, 2014. 23(3):717-29).
COS-7 cells were co-transfected with the 4c htt fragment and the human caspase-6 lacking the pro-domain which leads to fast autoactivation of the caspase-6 enzyme and the generation of the 586 aa Htt cleavage fragment. […] Non-transfected cells were included as a negative control and the purified 586 aa Htt fragment was included as a positive control. […] The cell lysates were also assayed for the levels of active caspase 6 enzyme as shown in the lower panel of FIG. 5B.

[4] = biological target: T4, full-length human caspase-6 (Homo sapiens, UniProt P55212); assay: Western blot of Htt fragments in COS-7 cells co-transfected with Htt 1-1212AA and full-length caspase-6; assay type: cell-based; conditions: 3 uM inhibitor, 24 hr, vs DMSO
T4 construct: DDK-tag (C); expressed in transfected cells; host or cells: COS-7
T4 sequence (P55212 with tags, fused parts or gaps): T3 sequence (P55212 with tags, fused parts or gaps)
Procedure: as §1
Cos-7 cells were co-transfected with Htt 1-1212AA (SEQ ID NO:3) and full-length human caspase-6 (SEQ ID NO:6), and exposed to either the pan-caspase inhibitor Q-VD-OPh, the PG3d compound or DMSO as a negative control. As shown in the upper panel of FIG. 9A, control cells that received DMSO alone (lanes labelled n.t.) show the presence of the Htt 1212AA protein and the Htt proteolytic cleavage fragments including the 586, 552 and 513 amino acid fragments. […]

SMILES	IC50 (recombinant caspase-6)	melting point	IC50 [1]	amount of Htt cleavage fragments interacting with caspase-6 [2]	cleavage of the Htt protein to the 586 amino acid fragment [3]	level of active caspase-6 enzyme [3]	amount of Htt cleavage fragments [4]
CCCCc1c(O)nc(C#Cc2ccccc2)oc1=O [PG-3, 5-Butyl-4-hydroxy-2-(phenylethynyl)-6H-1,3-oxazin-6-one]	13.8 µM	157 to 159 °C					
Cc1c(O)nc(C#Cc2ccccc2)oc1=O [PG-3a, 4-Hydroxy-5-methyl-2-(phenylethynyl)-6H-1,3-oxazin-6-one]	8.2 µM	184 to 186 °C	> 15 µM				
CCc1c(O)nc(C#Cc2ccccc2)oc1=O [PG-3b, 5-Ethyl-4-hydroxy-2-(phenylethynyl)-6H-1,3-oxazin-6-one]	8 µM	177 to 178 °C	12.1 µM				
CC(C)c1c(O)nc(C#Cc2ccccc2)oc1=O [PG-3c, 4-Hydroxy-5-isopropyl-2-(phenylethynyl)-6H-1,3-oxazin-6-one]	12.2 µM	202 to 203 °C	> 15 µM				
O=c1oc(C#Cc2ccccc2)nc(O)c1-c1ccccc1 [PG-3e, 4-Hydroxy-5-phenyl-2-(phenylethynyl)-6H-1,3-oxazin-6-one]	3.9 µM	187 to 189 °C	2.5 µM				
Cc1c(O)nc(C#Cc2ccccc2Cl)oc1=O [PG-3f, 2-[(2-Chlorophenyl)ethynyl]-4-hydroxy-5-methyl-6H-1,3-oxazin-6-one]	57.3 µM	175 to 178 °C					
O=c1oc(C#Cc2ccc(Cl)cc2)nc(O)c1-c1ccccc1 [PG-3g, 2-[(4-Chlorophenyl)ethynyl]-4-hydroxy-5-phenyl-6H-1,3-oxazin-6-one]	7.5 µM	185 to 187 °C (dec.)	3.9 µM				
O=C(C#Cc1ccccc1)NC(=O)Cc1ccccc1 [PG-3h, 3-Phenyl-N-(phenylacetyl)prop-2-ynamide]	8.1 µM		4.8 µM				
CC(C)[C@H](NC(=O)c1ccc2ccccc2n1)C(=O)N[C@@H](CC(=O)O)C(=O)COc1c(F)cccc1F [Q-VD-Oph, reference compound]				reduced	reduced cleavage	reduced level of active caspase-6 enzyme	reduction
